Measured values as given in article PMC10572855, “Phenotypic Test of Benzo[4,5]imidazo[1,2-c]pyrimidinone-Based Nucleoside and Non-Nucleoside Derivatives against DNA and RNA Viruses, Including Coronaviruses” (International Journal of Molecular Sciences, 2023).

How the values were obtained:
[1] = Cell growth inhibition in HEL299 cells, Coulter Counter; format: cell-based; conditions: human, 3 days of cell growth, read-out: Cytotoxicity Cell Growth (CC50)
Method: (§1) Cells were seeded at a rate of 5 × 10^3 cells/well into 96-well plates and allowed to proliferate for 24 h. Then, a medium containing different concentrations of the test compounds, starting at 100 mM, was added. After 3 days of incubation at 37 °C, the cell count was determined with a Beckman Coulter counter or, alternatively, cell viability was determined with the colorimetric formazan-based MTS assay. […] The cytotoxic effects of the compounds were also assessed by evaluating the MCC (minimum cytotoxic concentration that causes a microscopically detectable alteration of cell morphology).

HEL299 cells = conditions: minimum cytotoxic concentration, microscopically detectable alteration of cell morphology
Method: as §1

TK+ VZV strain OKA = test: microbe, parasite or virus in culture; format: cell-based, Varicella zoster virus; conditions: Human alphaherpesvirus 3, HEL 299, read-out: Antiviral Activity (EC50) TK+ VZV Strain OKA
TK- VZV strain 07-1 = test: microbe, parasite or virus in culture; conditions: Human alphaherpesvirus 3, HEL 299, read-out: Antiviral Activity (EC50) TK− VZV Strain 07-1
Vero cells = conditions: minimum cytotoxic concentration, microscopically detectable alteration of cell morphology
[2] = system: SARS-CoV-2 UC-1074 (Wuhan); test: Cytopathic effect reduction, SARS-CoV-2 UC-1074 (Wuhan) in Vero cells; format: cell-based; conditions: Severe acute respiratory syndrome coronavirus 2, UC1074, CPE reduced by 50%, 100 TCID50, read-out: Antiviral Activity (EC50) UC-1074 (Wuhan)
[3] = system: SARS-CoV-2 B1.1 529 BA.1 (Omicron); test: Cytopathic effect reduction, SARS-CoV-2 B1.1 529 BA.1 (Omicron) in Vero cells; format: cell-based; conditions: Severe acute respiratory syndrome coronavirus 2, CPE reduced by 50%, read-out: Antiviral Activity (EC50) B1.1 529 BA.1 (Omicron)
[4] = target: T1, SARS-CoV-2 N-protein and stem-loop vgRNA fragment condensates (Severe acute respiratory syndrome coronavirus 2, UniProt P0DTC9); test: Cell-free LLPS assay, N-protein:vgRNA condensates; format: biochemical; conditions: 20 µM compound
T1 construct: His-tag; made in house

[5] = system: SARS-CoV-2 860-J1 (Delta); test: Cytopathic effect reduction, SARS-CoV-2 860-J1 (Delta) in Vero cells; format: cell-based; conditions: Severe acute respiratory syndrome coronavirus 2, CPE reduced by 50%, 100 TCID50, read-out: Antiviral Activity (EC50) 860-J1 (Delta)
in vitro = conditions: green monkey
[6] = system: SARS-CoV-2 NVDBB-2220 (UK); test: Cytopathic effect reduction, SARS-CoV-2 NVDBB-2220 (UK) in Vero cells; format: cell-based; conditions: Severe acute respiratory syndrome coronavirus 2, CPE reduced by 50%, 100 TCID50, read-out: Antiviral Activity (EC50) NVDBB-2220 (UK)

SMILES | CC50 at 3 days [1] [µM] | Cytotoxicity Cell Morphology (MCC) (HEL299 cells) [μM] | EC50 (TK+ VZV strain OKA) [µM] | EC50 (TK- VZV strain 07-1) [µM] | Cytotoxicity Cell Morphology (MCC) (Vero cells) [μM] | EC50 [2] [µM] | EC50 [3] [µM] | effect on LLPS / condensates (summary in words) [4] | decrease in the partitioning coefficient ([4]; 3 µM N-protein, 6 µM RNA) | EC50 [5] [µM] | CC50 (in vitro) [µM] | EC50 [6] [µM]
Nc1nc2c(ncn2COCCO)c(=O)[nH]1 [Aciclovir, reference compound] | > 100 | >100 |  |  |  |  |  |  |  |  |  | 
O=c1[nH]c(=O)n([C@H]2C[C@H](O)[C@@H](CO)O2)cc1/C=C/Br [Brivudine, reference compound] | > 100 | >100 | 0.1 ± 0.07 | 0.14 ± 0.03 |  |  |  |  |  |  |  | 
COc1ccc(C(OC[C@H]2O[C@@H](n3ccc4nc5cc(OC)ccc5n4c3=O)[C@H](O)[C@@H]2O)(c2ccccc2)c2ccc(OC)cc2)cc1 [Compound 7b, 2-((2R,3R,4S,5R)-5-((bis(4-methoxyphenyl)(phenyl)methoxy)methyl)-3,4-dihydroxytetrahydrofuran-2-yl)-7-methoxybenzo[4,5]imidazo[1,2-c]pyrimidin-1(2H)-one] | 10.3 ± 5.63 | ≥100 | 30.7 ± 4.68 | 7.13 ± 0.94 | >100 | > 20 | > 20 |  |  |  |  | 
COc1ccc2c(c1)nc1ccn([C@H]3C[C@H](O)[C@@H](CO)O3)c(=O)n12 [Compound 8a, 2-((2R,4S,5R)-4-hydroxy-5-(hydroxymethyl)tetrahydrofuran-2-yl)-7-methoxybenzo[4,5]imidazo[1,2-c]pyrimidin-1(2H)-one] |  | 100 | > 20 | > 20 | 100 | > 20 | > 20 |  |  |  |  | 
COc1ccc2c(c1)nc1ccn([C@@H]3O[C@H](CO)[C@@H](O)[C@H]3O)c(=O)n12 [Compound 8b, 2-((2R,3R,4S,5R)-3,4-dihydroxy-5-(hydroxymethyl)tetrahydrofuran-2-yl)-7-methoxybenzo[4,5]imidazo[1,2-c]pyrimidin-1(2H)-one] |  | 100 | > 20 | > 20 | 100 | > 20 | > 20 |  |  |  |  | 
COc1ccc(C(OC[C@H]2O[C@@H](n3ccc(N)nc3=O)C[C@@H]2O)(c2ccccc2)c2ccc(OC)cc2)cc1 [Compound 9a, 4-amino-1-((2R,4S,5R)-5-((bis(4-methoxyphenyl)(phenyl)methoxy)methyl)-4-hydroxytetrahydrofuran-2-yl)pyrimidin-2(1H)-one] |  | 100 | > 20 | > 20 | >100 | > 100 | > 100 | reduced droplet density but did not prevent LLPS | approximately 4 fold |  |  | 
COc1ccc(C(OC[C@H]2O[C@@H](n3ccc(N)nc3=O)[C@H](O)[C@@H]2O)(c2ccccc2)c2ccc(OC)cc2)cc1 [Compound 9b, 4-amino-1-((2R,3R,4S,5R)-5-((bis(4-methoxyphenyl)(phenyl)methoxy)methyl)-3,4-dihydroxytetrahydrofuran-2-yl)pyrimidin-2(1H)-one] |  | ≥20 | > 4 | > 20 | 100 | > 20 | > 20 |  |  |  |  | 
CC(C)C(=O)OC[C@H]1O[C@@H](n2ccc(NO)nc2=O)[C@H](O)[C@@H]1O [Molnupiravir] |  |  |  |  | >100 | 5.52 ± 0.28 | 5.2 ± 0.23 |  |  | 5.78 ± 0.29 | > 100 | 3.08 ± 2.12
